According to US9446012B2, “Pharmaceutical compounds” (BIAL-PORTELA & CA, S.A., priority 2006, dated 2016):

Experiments:
[1] = Treatment of Parkinson's disease patients on L-DOPA therapy; format: in vivo, human; conditions: tablets containing 50 mg
liver COMT = experiment: Liver COMT activity after oral administration (methylation of adrenaline to metanephrine in liver homogenates); format: in vivo, rat; conditions: FIG. 1; for inhibition of liver COMT / inhibition of liver COMT activity / time to maximal inhibitory effect on liver COMT: 3 mg/kg; for inhibition of liver COMT: 24 hours after administration; for inhibition of liver COMT activity: nine hours after administration
[2] = Plasma levels of L-DOPA and 3-O-methyl-L-DOPA in rats treated with L-DOPA plus benserazide; format: in vivo, rat; conditions: 3 mg/kg
[3] = Brain levels of L-DOPA, 3-O-methyl-L-DOPA, dopamine, DOPAC and HVA in rats treated with L-DOPA plus benserazide; format: in vivo, rat
[4] = L-DOPA 12 mg/kg plus benserazide 3 mg/kg, all pre-treatment times (1, 7 and 24 h)
[5] = 3 mg/kg, L-DOPA plus benserazide, all pre-treatment times (1, 7 and 24 h)
[6] = 3 mg/kg, administered 24 h in advance

For `Cc1nc(Cl)c(-c2noc(-c3cc(O)c(O)c([N+](=O)[O-])c3)n2)c(C)c1Cl` [compound A, 5-[3-(2,5-dichloro-4,6-dimethylpyridin-3-yl)-[1,2,4]oxadiazol-5-yl]-3-nitrobenzene-1,2-diol], the clinical picture [1] was “significant improvement”, the “inhibition of liver COMT” value (liver COMT) was 60 % of control levels and the “inhibition of liver COMT activity” value (liver COMT) was 90 % of control levels. The “time to maximal inhibitory effect on liver COMT” value (liver COMT; oral administration) was at most 6 h, the “inhibitor of liver COMT (in words)” value (liver COMT; oral administration) was “potent inhibitor” and the “circulating 3-O-methyl-L-DOPA” value [2, 4] was “marked decrease”. The “plasma L-DOPA” value [2, 4] was “significant increases”, the “brain 3-O-methyl-L-DOPA” value [3, 5] was “marked decrease” and the “brain DOPAC” value [3, 5] was “significant increases”. For the same molecule, the “brain L-DOPA” value [3, 5] was “significant increases” and the brain dopamine [3, 5] was “significant increases”.
For `Cc1ccc(C(=O)c2cc(O)c(O)c([N+](=O)[O-])c2)cc1` [tolcapone, 3,4-dihydroxy-4′-methyl-5-nitrobenzophenone], the “inhibition of liver COMT” value (liver COMT) was “almost devoid of COMT inhibitory properties”, the “time to maximal inhibitory effect on liver COMT” value (liver COMT; after administration) was at most 0.5 h and the “inhibition of liver COMT activity” value (liver COMT) was “minimal inhibitory effects”. The 3-O-methyl-L-DOPA plasma levels ([2]; 2 and 7 h after administration) was “Significant changes”, the L-DOPA plasma levels ([2]; 2 and 7 h after administration) was “Significant changes” and the “plasma levels of 3-O-methyl-L-DOPA” value ([2]; administered 24 h in advance) was “not affected”. For the same molecule, the “plasma levels of L-DOPA” value ([2]; administered 24 h in advance) was “not affected”, the “brain levels of 3-O-methyl-L-DOPA” value [3, 6] was “not affected” and the “brain levels of DOPAC” value [3, 6] was “not affected”. For the same molecule, the “brain levels of L-DOPA” value [3, 6] was “not affected”, the “brain levels of dopamine” value [3, 6] was “not affected” and the “steadiness of brain delivery of L-DOPA” value ([3]; rat, in vivo) was “marked oscillations”.
